Test results: US20170056621A1, “LOCAL ADMINISTRATION OF DRUGS FOR THE TREATMENT OF ASTHMA” (Mercator MedSystems, Inc., priority 2015, published 2017)

Columns and labels:
bronchial walls = assay: Bronchial wall injections in a porcine subject: bronchoconstriction challenge and relief; type: in vivo; settings: for Effect of injection into methacholine-narrowed segments (bronchodilation): 0.1 to 0.5 mL injected into narrowed bronchial segments
Description: In another animal study, one porcine subject was utilized. The animal received multiple injections in the bronchial wall of sub-selected bronchi. First injections of methacholine in concentrations of 0.3 or 3.0 mg/mL and volumes of 0.1 to 0.5 mL were made into bronchial walls throughout the airway tree.

[1] = oral administration, cited from earlier work
porcine bronchi = assay: Toxicity and histopathological evaluation after injections in all lobes of the lungs of porcine subjects; type: in vivo
Description: Four porcine subjects were treated with two different drugs to test pharmacokinetics and toxicity in porcine bronchi. Dexamethasone was administered to 2 animals at low (1 mg/mL), medium (2 mg/mL), and high (4 mg/mL) doses. The other drug, α-1-antitrypsin (Alpha-1-antitrypsin or A1AT), was administered to the remaining animals at low (2 mg/mL), medium (10 mg/mL), and high (50 mg/mL) doses. The drugs were administered via injections in all lobes of the lungs at the varying dosages.
All animals survived until a scheduled termination and were sacrificed on day 30. All four animals had limited necropsies completed.
This group was comprised of 2 animals. Both animals received low dose treatment in the right upper and middle lung lobes, and mid dose treatment in the right lower lung lobe. One subject received high dose treatment in the left upper lung lobe. Another subject received high dose treatment in the left upper and lower lung lobes.
This group was comprised of 2 animals. Both animals received low dose treatment in the right upper and middle lung lobes, and mid dose treatment in the right lower lung lobe. One subject received high dose treatment in the left lower lung lobe, and the other received high dose treatment in the left upper lung lobe.

[2] = 0.3 or 3.0 mg/mL, 0.1 to 0.5 mL into bronchial walls

Compound | Effect of injection into methacholine-narrowed segments (bronchodilation) (bronchial walls) | Findings in bronchial or bronchiolar walls (porcine bronchi; pig, in vivo) | Gross or histopathological changes in the lung related to toxic effects (porcine bronchi; pig, in vivo) | Inflammatory cell infiltrates in lung sections (considered a background change) (porcine bronchi; pig, in vivo) | other results
C[N+]1(C)[C@@H]2C[C@@H](OC(=O)C(O)(c3cccs3)c3cccs3)C[C@H]1[C@@H]1O[C@@H]12 [tiotropium bromide] | immediate bronchodilation | – | – | – | –
CC(C)(C)NC[C@H](O)c1ccc(O)c(CO)c1 [levalbuterol] | immediate bronchodilation | – | – | – | –
CN(Cc1cnc2nc(N)nc(N)c2n1)c1ccc(C(=O)N[C@@H](CCC(=O)O)C(=O)O)cc1 [MTX, Methotrexate] | – | – | – | – | Onset of action ([1]; patients): 4-6 weeks; Patients having some response [1]: 70%
α-1-antitrypsin [A1AT] | – | no abnormal findings | did not induce any gross or histopathological changes | minimal multifocal inflammatory cell infiltrates | Histopathological examination of the lung tissues (porcine bronchi; pig, in vivo): normal lung architecture
C[C@@H]1C[C@H]2[C@@H]3CCC4=CC(=O)C=C[C@]4(C)[C@@]3(F)[C@@H](O)C[C@]2(C)[C@@]1(O)C(=O)CO [Dexamethasone] | – | no abnormal findings | did not induce any gross or histopathological changes | minimal multifocal inflammatory cell infiltrates | Histopathological examination of the lung tissues (porcine bronchi; porcine, injections in lung lobes at low, medium and high doses, sacrificed on day 30): normal lung architecture
CC(=O)OC(C)C[N+](C)(C)C (centres unmarked) [methacholine] | – | – | – | – | Duration of bronchoconstriction (bronchial walls; [2]): more than 30 minutes; Effect of injection on the airway (bronchoconstriction) (bronchial walls; [2]): immediate bronchoconstriction
